# Measured values as given in publication PMC12057046, “Elucidation of short linear motif-based interactions of the MIT and rhodanese domains of the ubiquitin-specific protease 8” (Biology Direct, 2025).
# How the values were obtained:
# USP8 Rhod domain = biological target: T1, USP8 Rhod domain (Homo sapiens, UniProt P40818); experiment: SPOT array of predicted peptides from known interactors, USP8 Rhod domain; format: binding; details: Rhod-Peptide screening, SPOT array of predicted peptides; KIAA1614 positive control = 100
# T1 construct: USP8 Rhod (174–317) (UniProt: P40818); GST (cleaved yes); made in house; host or cells: Escherichia coli BL21-Gold (DE3)
# T1 sequence (P40818 174-317): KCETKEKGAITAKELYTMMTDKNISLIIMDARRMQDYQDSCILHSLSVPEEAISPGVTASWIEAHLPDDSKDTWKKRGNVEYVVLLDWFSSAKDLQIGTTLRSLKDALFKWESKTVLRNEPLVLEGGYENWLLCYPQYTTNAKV
# From the text: The results therefore support that the USP8 Rhod domain binds to two distinct types of motifs (Fig. 4A, B). We used the motifs to scan for matching motifs in previously reported interactors using the SLiMSearch algorithm (Supplementary Table S8 A). As there was no clear match for the TET3-type motif except from only one hit, we focused on the KIAA1614-type motif. […] Both TP63 and USP21 are previously reported USP8 substrates, and the interactions may potentially contribute to substrate targeting. […] As the SHANK3 peptides (351-[…]−365 and 392-[…]−406) are closely located in the primary structure of SHANK3, it is tempting to speculate that both motifs contribute to the interactions between the full-length proteins by increasing the local concentration of binding motifs. […] Taken together, we find that the USP8 Rhod domain is a peptide binding domain that can be bound by peptides of two distinct types of motifs, with the Rx[LI]xGxxxPxxL motif and variants thereof being found in known USP8 substrates.
# SPOT array alanine scanning of peptides was designed, and cellulose-bound peptides were synthesized using Fluorenylmethyloxycarbonyl (Fmoc) solid phase synthesis with a MultiPep synthesizer (INTAVIS Peptide Services, Tübingen, Germany). The membranes of predicted peptides were purchased by JPT Peptide Technologies (Berlin, Germany). The membranes were incubated with blocking buffer containing 5% skim milk in TBST (50 mM Tris, 150 mM NaCl pH 7.5, 0.05% Tween-20) for two hours at room temperature. The blocked membranes were incubated with GST-tagged proteins (100 µM for MIT domain and 150 µM for the Rhodanese domain) in blocking buffer overnight at 4 °C. After rinsed with TBST the membranes were incubated with HRP-conjugated anti-GST antibody (Cytiva, RPN1236; 1:3000 dilution) in blocking buffer for 1 h at 4 °C and subsequently rinsed with TBST to remove any excess antibody. The ECL reagent (Clarity Max Western ECL substrate, 1705062, BioRad) was used for chemiluminescence read-out with the ChemiDoc Imaging system (BioRad). The images were analysed with Fiji (ImageJ2 version 2.9.0). SLiMSearch4 was used to design the peptide arrays with known interactors predicted to contain the motifs. The background signal intensity was subtracted, and the corrected signal intensities were normalized to the positive control and presented as percentage.
# USP8 MIT domain [1] = experiment: SPOT array of predicted peptides from known interactors, USP8 MIT domain; format: binding, human; details: for Percentage (%) normalized to highest intensity and corrected for background: SPOT array, GST-tagged MIT 100 µM, overnight 4 °C, chemiluminescence, highest intensity = DNAJB6; for Percentage (%): Supplementary Fig. 4B, normalized to the highest intensity and corrected for background
# From the text: To further assess the SLiM-based interactions of the USP8 MIT domain, we designed a peptide array tiling 24 potential binding sites in previously reported USP8 interactors. We used SLiMSearch to search for peptides that contain shorter or longer matches to the motif (Supplementary Table S4A). […] The DNAJB6_118 - 130 peptide was predicted as a binder based on a partial DFx{2,3}R motif. The DNAJB6-USP8 interaction is supported by previous GST-pulldown experiments and colocalization of the two proteins in male mouse germ cells, and the interaction is thought to be of importance to the protein quality control to yield functional spermatozoa. In the case of the CDH1_863 - 877 peptide it was predicted as USP8 MIT ligand based on the presence of an RFxxL motif. The previous support of the CDH1-USP8 interaction is based on proximity labelling mass spectrometry, and our results thus provide evidence for a binary interaction between the two proteins and define a binding site. To confirm that the motifs used to predict the interactions were of importance for binding we designed an alanine scanning peptide SPOT array analysis of the DNAJB6_118 - 130 and the CDH1_863 - 877 peptides. […] In summary, we find that the USP8 MIT domain binds to a MIM1-like motif that can be expressed by [[…]], as well as degenerate variants thereof. […] The membranes of predicted peptides were purchased by JPT Peptide Technologies (Berlin, Germany). The membranes were incubated with blocking buffer containing 5% skim milk in TBST (50 mM Tris, 150 mM NaCl pH 7.5, 0.05% Tween-20) for two hours at room temperature. The blocked membranes were incubated with GST-tagged proteins (100 μM for MIT domain and 150 μM for the Rhodanese domain) in blocking buffer overnight at 4 °C. After rinsed with TBST the membranes were incubated with HRP-conjugated anti-GST antibody (Cytiva, RPN1236; 1:3000 dilution) in blocking buffer for 1 h at 4 °C and subsequently rinsed with TBST to remove any excess antibody. The ECL reagent (Clarity Max Western ECL substrate, 1705062, BioRad) was used for chemiluminescence read-out with the ChemiDoc Imaging system (BioRad). The images were analysed with Fiji (ImageJ2 version 2.9.0). […] used to design the peptide arrays with known interactors predicted to contain the motifs. The background signal intensity was subtracted, and the corrected signal intensities were normalized to the positive control and presented as percentage.
# USP8 MIT domain [2] = experiment: Proteomic peptide-phage display (ProP-PD) selection against USP8 MIT domain; format: binding, human; design: Confidence: scale not given here
# Protocol: We explored the peptide-binding of the USP8 MIT domain by using the purified GST-tagged MIT domain as bait in proteomic peptide-phage display (ProP-PD) selections and a library designed to display the predicted unstructured regions of the human proteome. The peptide-coding regions of the binding-enriched phage pools were analysed by next-generation sequencing (NGS). After filtering for high confidence ligands, ten ligands remained (Fig. 1B; Supplementary Table S1). None of the ten identified protein-protein interactions had been previously reported, based on comparison with the information available in IntAct, HIPPIE and BioGrid (February 2025). Of the USP8 interacting proteins found, the D site-binding protein (DBP), which is a clock-controlled transcription factor, appears as an interesting ligand as USP8 has been reported to be involved in controlling the circadian rhythm. Also, the CCDC88A-encoded protein Girdin is an interactor of potential biological relevance as it is a scaffolding protein involved in the EGFR pathway which USP8 is known to regulate. At the motif level, there was no shared consensus motif among the ten peptide ligands. However, by manual inspection we noticed that four of the peptides contained a shared [LI]xxR[IY]xxL sequence, which appears to be a variation of the [DE]xxLxxRLxxL[KR] MIM1 motif described in the Eukaryotic Linear Motif resource (ELM) (Fig. 1B). We performed a SPOT array alanine scanning analysis in which peptides are synthesised on a membrane, and where each amino acid position of the peptide is mutated to alanine (or glycine if alanine is in the wild type peptide) to evaluate the effect of the amino acid residues in binding. We tested two peptides containing the apparent MIM1-like motif, one from Girdin (Girdin1192 − 1207) and one from the histone-lysine N-methyltransferase SETD1B (SETD1B492 − 507). […] AlphaFold3 (AF3) modelling of the four peptides with the variant MIM1 motif and the MIT domain docked the peptides with high confidence (ipTM scores: HIVEP1_741 − 756: 0.87, Girdin1192 − 1207: 0.85, MLPH481 − 496: 0.82, SETD1B492 − 507: 0.75) at the expected MIM1 binding pocket (Fig. 1D). […] However, the USP8 MIT selection was dominated (more than 94% of NGS counts) by two peptides that lack an apparent MIM1 motif. The two peptides were from the EF-hand calcium-binding domain-containing protein 12 (EFCAB12_1 − 16: […]) and from DBP (DBP116 − 131: […]) (Fig. 1B). […] In comparison to this, the EFCAB12_1 − 16 peptide shares a potential Dx[YF]xxxH[SG] motif with the DBP116 − 131 (Fig. 1B). […] The AF3 model of DBP116 − 131 peptide supports the interaction of D120 of the DBP116 − 131 peptide with the residues K74 and N71 in the MIT domain (Fig. 1G), emphasizing the significance of the aspartic acid at this position. […] Of them, two peptides (SYNE2_853 − 868 and PKNOX1_56 − 71) where placed in the same binding site as the Girdin and DBP peptides with high confidences by AF3 modelling (ipTM 0.92 and 0.74; Supplementary Fig. S3).
# Four rounds of phage selections were carried out using the second generation human disorderome library or the constructed deep mutational scanning library. At least three individual replicates were used for each bait protein. 10 µg of GST-tagged proteins or GST control (diluted in PBS from the stock of proteins kept in the purification elution buffer) were immobilized in 100 µL PBS on a 96-well MaxiSorp (Nunc) plate overnight at 4 °C. The plates were incubated with blocking buffer (with 0.5% BSA in PBS) for 1 h at 4 °C followed by washing with 0.05% Tween 20 in PBS four times. The naïve phage library (10^11 CFU) was diluted in 1/5th volume PEG/NaCl (20% PEG-8000, 0.4 M NaCl) and 1X PBS, incubated on ice for 10 min and centrifuged at 10,000 [drawing 3] g for 10 min. The pellet was resuspended in the volume of PBS (100 µL/ well). […]
Sequence,Percentage (%) normalized to highest intensity and corrected for background (USP8 Rhod domain) [%],Percentage (%) normalized to highest intensity and corrected for background (USP8 MIT domain [1]) [%],Percentage (%) (USP8 MIT domain [1]),other results
EINLQRNIAGKVVTP,-1.5,,,
GVSCYRGLTGFGSRS,52,,,
"QGPALRYFQLPPRAA [SHANK1 B6, SHANK1 peptide, array position B6]",,7,7,
"RFVVALVLLNVAAA [TGOLN2, Trans-Golgi network integral membrane protein 2 peptide]",,-4.72,-5,
"RGVLALALLALALC [RNF149, E3 ubiquitin-protein ligase RNF149 peptide]",,3,3,
"RPHDIFRQRKQNT [VIRMA, Protein virilizer homolog peptide]",,6.6,7,
"SEENGLPLLVLPPP [SHANK1 A11, SHANK1 peptide, array position A11]",,-5.69,-6,
"SGETDLKLLEESIA [NR3C1, Glucocorticoid receptor peptide]",,-4.47,-4,
"SQKELESYMMRAQQLL [SYNE2_853 − 868, Nesprin-2 peptide]",,-4,-4,"NGS counts (%) (USP8 MIT domain [2]; ProP-PD, human disorderome library, GST-tagged MIT bait, four rounds of selection, percent of NGS counts associated with each peptide, Fig. 1B): 0.43%; max_counts (USP8 MIT domain [2]; Total NGS counts): 21; Confidence (USP8 MIT domain [2]; calculated based on four metrics: overlapping peptides, replicated peptides, motif match, peptide counts): 2; Counts (USP8 MIT domain [2]; fraction of NGS counts for a selection): 0.0007925; Promiscuity (USP8 MIT domain [2]; number of baits selections where the peptide has been observed, calculated on the domain level): 1; Replicates (USP8 MIT domain [2]; number of screens against the bait protein in which the peptide has been found): 3; Specificity (USP8 MIT domain [2]; proportion for the current bait of the total NGS read counts of the peptide for all baits screened with this library): 1"
"SRGLQLLLLSCAYS [CD83, CD83 antigen peptide]",,5.58,6,
"TEQETLALLEVKRS [TMEM79, Transmembrane protein 79 peptide]",,-4,-4,

# Further lines, with some results ahead:
Percentage (%) normalized to highest intensity and corrected for background (USP8 Rhod domain) [%],Sequence,Percentage (%) normalized to highest intensity and corrected for background (USP8 MIT domain [1]) [%],Percentage (%) (USP8 MIT domain [1]),other results
-1.54,AKPPGPGVLMIHPPG,,,
-0.828,AQPLTPGVLMVQPAA,,,
-1.21,AQPPAPGVLMAQPLT,,,
-1.3,AQPPTPGVLMVHPSA,,,
-0.581,ASQAVPTFLMATAAA,,,
11,CGNQERKLEGSINDI,,,
0.93,DPSAPPSLLLLLLAQ,,,
-0.521,DPVESRGLPGPEDDK,,,
4.4,FDQPHPQGLLPCQPQ,,,
-1.22,GKPPTPGVLMVHPPP,,,
100,GMERVLGGLSSPLRLL [KIAA1614 Positive control],,,
-0.117,GPSTSRILSGWEGPS,,,
-0.0499,HAVSSPDPLLCSDVT,,,
45,HEFSSPSHLLRTPSS,,,
2.19,HPNTPRGLSGWEGPS,,,
5.44,IATYRRLLEGEEHRL,,,
1.42,MAQALPWLLLWMGAG,,,
